{"source": "patent US20220265565A1", "about": "“NANOTECHNOLOGY-BASED DELIVERY SYSTEM OF BERGAMOT ESSENTIAL OIL, METHOD OF PREPARATION OF THE SYSTEM AND USES THEREOF” (priority 2019, published 2022)", "origin": "cited, not measured here", "key": {"[1]": {"conditions": "about 0.2% in the nonvolatile residue of BEO"}, "[2]": {"system": "PSNL-induced neuropathic pain symptoms in mice"}, "[3]": {"system": "nociceptive response in the capsaicin test", "conditions": "for nociceptive response in the capsaicin test: intraplantar (i.pl.) administration"}}}
{"smiles": "COc1c2ccoc2cc2oc(=O)ccc12", "note": "[bergapten, 5-methoxypsoralen]", "values": [{"measurement": "phototoxicity", "setting": "[1]", "result": "responsible for the phototoxicity of BEO"}]}
{"smiles": "C=CC(C)(O)CCC=C(C)C", "note": "(stereo not drawn) [linalool]", "values": [{"measurement": "neuropathic pain symptoms / mechanical allodynia", "setting": "[2]; neuropathic pain models, PSNL mice, i.pl. injection", "result": "reduced partial sciatic nerve ligation (PSNL)-induced neuropathic pain symptoms"}, {"measurement": "morphine-induced anti-allodynic effect", "setting": "[2]; under neuropathic pain", "result": "modulate morphine-induced anti-allodynic effect"}, {"measurement": "nociceptive response in the capsaicin test", "setting": "[3]", "result": "reduced the nociceptive response"}, {"measurement": "morphine-induced antinociception with combined injection", "setting": "[3]; morphine i.p. or i.t. combined with i.pl. injection of the substance", "result": "markedly enhanced"}]}
{"smiles": "C=CC(C)(CCC=C(C)C)OC(C)=O", "note": "(stereo not drawn) [linalyl acetate]", "values": [{"measurement": "nociceptive response in the capsaicin test", "setting": "[3]", "result": "reduced the nociceptive response"}]}
